In patent US20230146455A1, “TREATMENT OF INFLAMMATORY DISEASES WITH PEPTIDES AND PHARMACEUTICAL COMPOSITIONS” (Yuyu Pharma, Inc., priority 2020, published 2023):
“And” between values parts separate entries of the source, which are not always exact repeats. Equal entries are not always repeated. Where a SMILES comes first, the peptide text is derived from it. [ ]: non-standard residue; d: D form. Hyp = O=C(O)[C@@H]1C[C@@H](O)CN1

Columns and labels:
Assay type in all cases: cell-based, human
MMP-9 = assay: Example 8 main study Luminex, LPS hPBMCs: MMP-9; settings: PBMC + LPS(5 ug/ml)
Protocol: (§1) Human PBMCs were pretreated with YY-101, YDE-011, YDE-043 or reference compound; Xiidra® at various concentration (ranging from […] to 500 nM) for 2 h before stimulation. An equal volume of 0.5% DMSO was used as a vehicle control. Then, the cells were treated with LPS at 5 ug/ml, which was selected based on the pilot study. The supernatants from treated cells were harvested at 24 h and placed in a 96 well for Luminex cytokine & chemokine profiling using a Luminex 200 multiplex assay (Luminex; R&D system, USA).
(§2) The main study arm with triplicate wells per group in a 24-well plate: • 1. Blank • 2. PBMC: 0.5% DMSO • 3. PBMC+LPS (5 ug/ml) • 4. PBMC+YY-101 500 nM • 5. PBMC+YY-101 50 nM • 6. PBMC+YY-101 5 nM • 7. PBMC+YY-101 0.5 nM • 8. PBMC+LPS (5 ug/ml)+Xiidra® 500 nM • 9. PBMC+LPS (5 ug/ml)+Xiidra® 50 nM • 10. PBMC+LPS (5 ug/ml)+Xiidra® 5 nM • 11. PBMC+LPS (5 ug/ml)+Xiidra® 0.5 nM • 12. PBMC+LPS (5 ug/ml)+Xiidra® 0.05 nM • 13. PBMC+LPS (5 ug/ml)+Xiidra® 0.005 nM • 14. PBMC+LPS (5 ug/ml)+YY-101 500 nM • 15. PBMC+LPS (5 ug/ml)+YY-101 50 nM • 16. PBMC+LPS (5 ug/ml)+YY-101 5 nM • 17. PBMC+LPS (5 ug/ml)+YY-101 0.5 nM • 18. PBMC+LPS (5 ug/ml)+YY-101 0.05 nM • 19. PBMC+LPS (5 ug/ml)+YY-101 0.005 nM • 20. PBMC+LPS (5 ug/ml)+YDE-011 500 nM • 21. PBMC+LPS (5 ug/ml)+YDE-011 50 nM • 22. PBMC+LPS (5 ug/ml)+YDE-011 5 nM • 23. PBMC+LPS (5 ug/ml)+YDE-011 0.5 nM • 24. PBMC+LPS (5 ug/ml)+YDE-011 0.05 nM • 25. PBMC+LPS (5 ug/ml)+YDE-011 0.005 nM • 26. PBMC+LPS (5 ug/ml)+YDE-043 500 nM • 27. PBMC+LPS (5 ug/ml)+YDE-043 50 nM • 28. PBMC+LPS (5 ug/ml)+YDE-043 5 nM • 29. PBMC+LPS (5 ug/ml)+YDE-043 0.5 nM • 30. PBMC+LPS (5 ug/ml)+YDE-043 0.05 nM • 31. PBMC+LPS (5 ug/ml)+YDE-043 0.005 nM
(§3) Multiplex assay was used to measure 30 cytokines and chemokines. The 1:200 diluted cell supernatant and serial dilution of the standard were dispensed into a 96 well plate at 50 ul/well. Then, the pre-mixed cocktail of antibody-coated magnetic beads was dispensed at 50 ul/well and incubated at room temperature for 2 h in a horizontal orbital microplate shaker at 800±500 rpm. The beads were washed using a magnetic device to prevent loss. The biotin-antibody was dispensed in 50 ul of each well and incubated at room temperature for 1 h in a shaker at 800±500 rpm. After washing, streptavidin-PE was added at 50 ul/well and incubated at room temperature for 30 min in a shaker under the same conditions. Finally, after washing, wash buffer (100 ul/well) was added to the plate and incubated in a shaker for 2 min. The Luminex™ 200 setting were set according to the manufacturer's protocol. The data was calculated with a standard five-parameter logistic nonlinear regression analysis of the data (xPonent software 4.2, USA). Results were presented as concentration (ng/ml or pg/ml).

IL-1 beta/IL-1F2 = assay: Example 8 main study Luminex, LPS hPBMCs: IL-1 beta/IL-1F2
Protocol: as §1, §2, §3

TIMP-1 = assay: Example 8 main study Luminex, LPS hPBMCs: TIMP-1; settings: PBMC + LPS(5 ug/ml)
Protocol: as §1, §2, §3

[1] = test article 0.005 nM, single replicates
[2] = test article 0.05 nM, single replicates
[3] = test article 0.5 nM, single replicates
[4] = test article 5 nM, single replicates
[5] = test article 50 nM, single replicates
[6] = test article 500 nM, single replicates
[7] = PBMC + LPS(5 ug/ml) + test article 0.005 nM, Mean
[8] = PBMC + LPS(5 ug/ml) + test article 0.005 nM, individual replicates
[9] = PBMC + LPS(5 ug/ml) + test article 0.05 nM, Mean
[10] = PBMC + LPS(5 ug/ml) + test article 0.05 nM, individual replicates
[11] = PBMC + LPS(5 ug/ml) + test article 0.5 nM, Mean
[12] = PBMC + LPS(5 ug/ml) + test article 0.5 nM, individual replicates
[13] = PBMC + LPS(5 ug/ml) + test article 5 nM, Mean
[14] = PBMC + LPS(5 ug/ml) + test article 5 nM, individual replicates
[15] = PBMC + LPS(5 ug/ml) + test article 50 nM, Mean
[16] = PBMC + LPS(5 ug/ml) + test article 50 nM, individual replicates
[17] = PBMC + LPS(5 ug/ml) + test article 500 nM, Mean
[18] = PBMC + LPS(5 ug/ml) + test article 500 nM, individual replicates

CC(C)C[C@H](NC(=O)CNC(=O)[C@H](CC(C)C)NC(=O)[C@H](CCC(N)=O)NC(=O)CNC(=O)[C@@H]1C[C@@H](O)CN1)C(=O)N[C@@H](C)C(=O)NCC(=O)N1CCC[C@H]1C(=O)N[C@@H](CCCCN)C(=O)O [YDE-011] (H-[Hyp]GQLGLAGPK-OH)
Concentration (pg/ml), MMP-9 (MMP-9; test article 0.005 nM, Mean): 4251.7 pg/mL | MFI (Bead name: MMP-9) (MMP-9; test article 0.005 nM, Mean): 29.8 | Concentration (pg/ml), MMP-9 (MMP-9; [1]): 4148.1 pg/mL and 4612.9 pg/mL and 3994.2 pg/mL | MFI (Bead name: MMP-9) (MMP-9; [1]): 29.5 and 31.0 and 29.0 | Concentration (pg/ml), MMP-9 (MMP-9; test article 0.05 nM, Mean): 4509.4 pg/mL | MFI (Bead name: MMP-9) (MMP-9; test article 0.05 nM, Mean): 30.7 | Concentration (pg/ml), MMP-9 (MMP-9; [2]): 4612.9 pg/ml (2×) and 4302.5 pg/ml | MFI (Bead name: MMP-9) (MMP-9; [2]): 31.0 (2×) and 30.0 | Concentration (pg/ml), MMP-9 (MMP-9; test article 0.5 nM, Mean): 3435.2 pg/mL | MFI (Bead name: MMP-9) (MMP-9; test article 0.5 nM, Mean): 27.2 | Concentration (pg/ml), MMP-9 (MMP-9; [3]): 3384.2 pg/mL and 3688.0 pg/mL and 3233.2 pg/mL | MFI (Bead name: MMP-9) (MMP-9; [3]): 27.0 and 28.0 and 26.5 | Concentration (pg/ml), MMP-9 (MMP-9; test article 5 nM, Mean): 3299.3 pg/mL | MFI (Bead name: MMP-9) (MMP-9; test article 5 nM, Mean): 26.7 | Concentration (pg/ml), MMP-9 (MMP-9; [4]): 1907.3 pg/mL and 3688.0 pg/mL and 4302.5 pg/mL | MFI (Bead name: MMP-9) (MMP-9; [4]): 22.0 and 28.0 and 30.0 | Concentration (pg/ml), MMP-9 (MMP-9; test article 50 nM, Mean): 2555.4 pg/mL | MFI (Bead name: MMP-9) (MMP-9; test article 50 nM, Mean): 24.2 | Concentration (pg/ml), MMP-9 (MMP-9; [5]): 2636.1 pg/mL and 3688.0 pg/mL and 1342.1 pg/mL | MFI (Bead name: MMP-9) (MMP-9; [5]): 24.5 and 28.0 and 20.0 | Concentration (pg/ml), MMP-9 (MMP-9; test article 500 nM, Mean): 2776.4 pg/mL | MFI (Bead name: MMP-9) (MMP-9; test article 500 nM, Mean): 24.8 | Concentration (pg/ml), MMP-9 (MMP-9; [6]): 4612.9 pg/mL and 931.9 pg/mL and 2784.3 pg/mL | MFI (Bead name: MMP-9) (MMP-9; [6]): 31.0 and 18.5 and 25.0 | IL-1 beta/IL-1F2 Concentration (IL-1 beta/IL-1F2; [7]): 5171.7 pg/mL | IL-1 beta/IL-1F2 MFI (IL-1 beta/IL-1F2; [7]): 94.5 | IL-1 beta/IL-1F2 Concentration (IL-1 beta/IL-1F2; [8]): 5350.1 pg/mL and 5023.0 pg/mL and 5141.9 pg/mL | IL-1 beta/IL-1F2 MFI (IL-1 beta/IL-1F2; [8]): 97.5 and 92.0 and 94.0 | IL-1 beta/IL-1F2 Concentration (IL-1 beta/IL-1F2; [9]): 5836.1 pg/mL | IL-1 beta/IL-1F2 MFI (IL-1 beta/IL-1F2; [9]): 105.7 | IL-1 beta/IL-1F2 Concentration (IL-1 beta/IL-1F2; [10]): 5796.4 pg/mL and 6094.1 pg/mL and 5617.8 pg/mL | IL-1 beta/IL-1F2 MFI (IL-1 beta/IL-1F2; [10]): 105.0 and 110.0 and 102.0 | IL-1 beta/IL-1F2 Concentration (IL-1 beta/IL-1F2; [11]): 4864.5 pg/mL | IL-1 beta/IL-1F2 MFI (IL-1 beta/IL-1F2; [11]): 89.3 | IL-1 beta/IL-1F2 Concentration (IL-1 beta/IL-1F2; [12]): 4844.7 pg/mL and 4963.6 pg/mL and 4785.3 pg/mL | IL-1 beta/IL-1F2 MFI (IL-1 beta/IL-1F2; [12]): 89.0 and 91.0 and 88.0 | IL-1 beta/IL-1F2 Concentration (IL-1 beta/IL-1F2; [13]): 4350.3 pg/mL | IL-1 beta/IL-1F2 MFI (IL-1 beta/IL-1F2; [13]): 80.7 | IL-1 beta/IL-1F2 Concentration (IL-1 beta/IL-1F2; [14]): 3539.2 pg/mL and 4250.8 pg/mL and 5260.9 pg/mL | IL-1 beta/IL-1F2 MFI (IL-1 beta/IL-1F2; [14]): 67.0 and 79.0 and 96.0 | IL-1 beta/IL-1F2 Concentration (IL-1 beta/IL-1F2; [15]): 4786.7 pg/mL | IL-1 beta/IL-1F2 MFI (IL-1 beta/IL-1F2; [15]): 88.0 | IL-1 beta/IL-1F2 Concentration (IL-1 beta/IL-1F2; [16]): 5558.3 pg/mL and 5617.8 pg/mL and 3183.9 pg/mL | IL-1 beta/IL-1F2 MFI (IL-1 beta/IL-1F2; [16]): 101.0 and 102.0 and 61.0 | IL-1 beta/IL-1F2 Concentration (IL-1 beta/IL-1F2; [17]): 4262.6 pg/mL | IL-1 beta/IL-1F2 MFI (IL-1 beta/IL-1F2; [17]): 79.2 | IL-1 beta/IL-1F2 Concentration (IL-1 beta/IL-1F2; [18]): 5796.4 pg/mL and 2681.1 pg/mL and 4310.2 pg/mL | IL-1 beta/IL-1F2 MFI (IL-1 beta/IL-1F2; [18]): 105.0 and 52.5 and 80.0 | TIMP-1 Concentration (pg/ml), Mean (TIMP-1; test article 0.005 nM): 4036.4 pg/mL | TIMP-1 Concentration (pg/ml), single replicates (TIMP-1; test article 0.005 nM): 4259.2 pg/ml (2×) and 3590.9 pg/ml | TIMP-1 Concentration (pg/ml), Mean (TIMP-1; test article 0.05 nM): 4288.3 pg/mL | TIMP-1 Concentration (pg/ml), single replicates (TIMP-1; test article 0.05 nM): 4414.6 pg/mL and 3590.9 pg/mL and 4859.3 pg/mL | TIMP-1 Concentration (pg/ml), Mean (TIMP-1; test article 0.5 nM): 4080.2 pg/mL | TIMP-1 Concentration (pg/ml), single replicates (TIMP-1; test article 0.5 nM): 3590.9 pg/mL and 3935.4 pg/mL and 4714.4 pg/mL | TIMP-1 Concentration (pg/ml), Mean (TIMP-1; test article 5 nM): 4128.5 pg/mL | TIMP-1 Concentration (pg/ml), single replicates (TIMP-1; test article 5 nM): 4859.3 pg/mL and 3935.4 pg/mL and 3590.9 pg/mL | TIMP-1 Concentration (pg/ml), Mean (TIMP-1; test article 50 nM): 4253.6 pg/mL | TIMP-1 Concentration (pg/ml), single replicates (TIMP-1; test article 50 nM): 3935.4 pg/mL and 4259.2 pg/mL and 4566.3 pg/mL | TIMP-1 Concentration (pg/ml), Mean (TIMP-1; test article 500 nM): 3820.5 pg/mL | TIMP-1 Concentration (pg/ml), single replicates (TIMP-1; test article 500 nM): 3935.4 pg/ml (2×) and 3590.9 pg/ml
